Earlier results on two compounds are cited in patent US10155776B2, “Method for selective detection and estimation of histidine and cystein” (Council of Scientific and Industrial Research, priority 2014, dated 2018).

For `N[C@@H](CCC(=O)N[C@@H](CS)C(=O)NCC(=O)O)C(=O)O` [glutathione], the “pKa value of the thiol group in the side chain” value was 9.20.
As for `N[C@@H](CCS)C(=O)O` [homocysteine], the “pKa value of the thiol group in the side chain” value is 8.87.
